Source: patent publication US7524964B2, “Tetrahydrothiopyrano pyrazole cannabinoid modulators” (Janssen Pharmaceutica NV, priority 2005, dated 2009)
Like-named read-outs stand apart in the source and are kept apart here.

Assays:
human CB-2 receptor = biological target: T1, human CB-2 receptor (Homo sapiens, UniProt P34972); assay: Binding assay, cannabinoid CB2 receptor ([3H]-CP-55,940 displacement); details: read-out: CB2 binding percent inhibition; for inhibition at 1 µM: test concentration 1 μM (superscript b)
T1 construct: expressed in transfected cells; host or cells: SK-N-MC cells, pcDNA3 CB-2 (human), semi-purified membranes
T1 sequence (P34972 whole entry): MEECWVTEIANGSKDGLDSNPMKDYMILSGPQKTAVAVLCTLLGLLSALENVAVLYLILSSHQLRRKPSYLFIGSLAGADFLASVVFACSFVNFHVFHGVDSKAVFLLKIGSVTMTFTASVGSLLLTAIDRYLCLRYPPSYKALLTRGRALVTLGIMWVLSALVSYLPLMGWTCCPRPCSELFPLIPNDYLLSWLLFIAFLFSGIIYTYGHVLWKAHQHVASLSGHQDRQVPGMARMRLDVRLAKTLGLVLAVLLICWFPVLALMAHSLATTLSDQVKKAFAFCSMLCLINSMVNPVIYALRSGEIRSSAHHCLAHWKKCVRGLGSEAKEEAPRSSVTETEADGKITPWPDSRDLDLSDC
Summary of the method: (§1)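 Membranes from SK-N-MC cells stably expressing human CB-1 or CB-2 were incubated 90 min at 30° C with 0.2 nM [3H]-CP-55,940 in pH 7.5 Tris buffer with fatty-acid-free BSA; 10 uM WIN 55,212 defined non-specific binding. Filter-bound counts gave IC50 by linear regression, or percent inhibition at 0.2, 1 or 10 μM.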

human CB1 receptor = human CB1 receptor (Homo sapiens, UniProt P21554); assay: Binding assay, cannabinoid CB1 receptor ([3H]-CP-55,940 displacement); design: expressed in transfected cells; host or cells: SK-N-MC cells, pcDNA3 CB-1 (human), semi-purified membranes; details: for inhibition at 1 µM: test concentration 1 μM (superscript b); for inhibition at 1 µM / inhibition at 0.2 µM: read-out: CB1 binding percent inhibition; for inhibition at 0.2 µM: test concentration 0.2 μM (superscript a)
Sequence of human CB1 receptor (P21554 whole entry): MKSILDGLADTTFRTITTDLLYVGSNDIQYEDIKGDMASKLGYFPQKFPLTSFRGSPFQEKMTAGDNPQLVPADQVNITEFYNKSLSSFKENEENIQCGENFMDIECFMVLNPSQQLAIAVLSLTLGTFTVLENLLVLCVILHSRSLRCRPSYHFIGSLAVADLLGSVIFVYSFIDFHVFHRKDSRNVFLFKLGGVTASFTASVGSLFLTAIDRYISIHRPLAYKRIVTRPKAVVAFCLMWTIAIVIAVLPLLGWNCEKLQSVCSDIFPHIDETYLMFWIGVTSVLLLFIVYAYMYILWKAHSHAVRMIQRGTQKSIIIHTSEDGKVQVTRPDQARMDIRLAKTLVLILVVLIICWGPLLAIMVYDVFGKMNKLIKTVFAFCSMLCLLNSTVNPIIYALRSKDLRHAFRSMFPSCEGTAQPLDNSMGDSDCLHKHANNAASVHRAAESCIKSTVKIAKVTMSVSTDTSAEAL
Summary of the method: as §1

[1] = test concentration 0.2 μM (superscript a)

Row | Structure (SMILES) | IC50 (human CB1 receptor) [µM] | inhibition at 0.2 µM (human CB-2 receptor; [1]) [%] | inhibition at 0.2 µM (human CB1 receptor) [%] | further results
1 | C[C@H](NS(=O)(=O)/C=C/c1c2c(nn1Cc1ccccc1)CCS(=O)(=O)C2)c1ccccc1 [Cpd 10, (E)-2-(2-benzyl-5,5-dioxo-4,5,6,7-tetrahydro-2H-5λ^6-thiopyrano[4,3-c]pyrazol-3-yl)-ethenesulfonic acid [(1S)-1-phenyl-ethyl]-amide] |  |  |  | inhibition at 1 µM (human CB-2 receptor): 36%; inhibition at 1 µM (human CB1 receptor): 0%
2 | O=C(N[C@H]1c2ccccc2C[C@H]1O)c1nn(-c2ccc(Cl)cc2Cl)c2c1CSC/C2=C\c1ccc(F)cc1 [Cpd 59, (7Z)-1-(2,4-dichloro-phenyl)-7-(4-fluoro-benzylidene)-1,4,6,7-tetrahydro-thiopyrano[4,3-c]pyrazole-3-carboxylic acid [(1S,2R)-2-hydroxy-indan-1-yl]-amide] | 0.042 |  |  | inhibition at 0.2 µM (human CB-2 receptor): 25%
3 | C[C@@H](NC(=O)c1nn(-c2ccc(Cl)cc2Cl)c2c1CS(=O)(=O)CC2)c1ccccc1 [Cpd 128, 1-(2,4-dichloro-phenyl)-5,5-dioxo-4,5,6,7-tetrahydro-1H-5λ^6-thiopyrano[4,3-c]pyrazole-3-carboxylic acid [(1R)-1-phenyl-ethyl]-amide] |  | 10 | 5 | 
4 | C[C@@H](NC(=O)c1c2c(nn1-c1ccc(Cl)cc1Cl)/C(=C/c1ccc(F)cc1)CSC2)c1ccccc1 [Cpd 78, (7Z)-2-(2,4-dichloro-phenyl)-7-(4-fluoro-benzylidene)-2,4,6,7-tetrahydro-thiopyrano[4,3-c]pyrazole-3-carboxylic acid [(1R)-1-phenyl-ethyl]-amide] |  | 11 | 62 | 
5 | O=C(NNC1CCCCC1)c1nn(-c2ccc(Cl)cc2Cl)c2c1CSC/C2=C\c1ccc(F)cc1 [Cpd 115, (7Z)-1-(2,4-dichloro-phenyl)-7-(4-fluoro-benzylidene)-1,4,6,7-tetrahydro-thiopyrano[4,3-c]pyrazole-3-carboxylic acid N′-cyclohexyl-hydrazide] | 0.079 | 19 |  | 
6 | C[C@@H](NS(=O)(=O)/C=C/c1nn(-c2ccc(F)cc2F)c2c1CS(=O)(=O)CC2Cc1cccc(F)c1)C1CCCCC1 (stereo partly drawn) [Cpd 43, (E)-2-[1-(2,4-difluoro-phenyl)-7-(3-fluoro-benzyl)-5,5-dioxo-4,5,6,7-tetrahydro-1H-5λ^6-thiopyrano[4,3-c]pyrazol-3-yl]-ethenesulfonic acid [(1R)-1-cyclohexyl-ethyl]-amide] |  | 11 | 41 | 
7 | O=C(NN1CCCCCC1)c1nn(-c2ccc(Cl)cc2Cl)c2c1CS(=O)(=O)C/C2=C\c1ccc(Cl)o1 [Cpd 120, (7Z)-7-(5-chloro-furan-2-ylmethylene)-1-(2,4-dichloro-phenyl)-5,5-dioxo-4,5,6,7-tetrahydro-1H-5λ^6-thiopyrano[4,3-c]pyrazole-3-carboxylic acid azepan-1-ylamide] | 0.033 | 12 |  | 
8 | C[C@H](NS(=O)(=O)/C=C/c1c2c(nn1Cc1ccccc1)CCSC2)c1ccccc1 [Cpd 5, (E)-2-(2-benzyl-2,4,6,7-tetrahydro-thiopyrano[4,3-c]pyrazol-3-yl)-ethenesulfonic acid [(1S)-1-phenyl-ethyl]-amide] |  |  |  | inhibition at 1 µM (human CB-2 receptor): 9%; inhibition at 1 µM (human CB1 receptor): 9%
9 | CCOC(=O)[C@@H]1C2CCC(C2)[C@@H]1NC(=O)c1nn(-c2ccc(F)cc2F)c2c1CS(=O)(=O)C[C@H]2Cc1cccc(F)c1 (stereo partly drawn) [Cpd 50, (2R,3S)-3-{[1-(2,4-difluoro-phenyl)-(7S)-(3-fluoro-benzyl)-5,5-dioxo-4,5,6,7-tetrahydro-1H-5λ^6-thiopyrano[4,3-c]pyrazole-3-carbonyl]-amino}-bicyclo[2.2.1]heptane-2-carboxylic acid ethyl ester] |  | 24 | 50 | 
10 | C[C@H](NC(=O)c1c2c(nn1-c1ccc(Cl)cc1Cl)/C(=C/c1ccc(F)cc1)CSC2)c1ccccc1 [Cpd 91, (7Z)-2-(2,4-dichloro-phenyl)-7-(4-fluoro-benzylidene)-2,4,6,7-tetrahydro-thiopyrano[4,3-c]pyrazole-3-carboxylic acid [(1S)-1-phenyl-ethyl]-amide] |  | 14 | 38 | 
